Measurements taken from patent publication US4455290A, “Inhibition of fibrin polymerization by a peptide isolated from fibrin Fragment D1” (Research Corporation, priority 1981, dated 1984).
Peptide text beside a SMILES is read from it.

Columns and labels:
Fragment D1 = target: T1, Fragment D1 (Homo sapiens, UniProt P02671+P02675+P02679); experiment: Equilibrium binding of 125-I D1 Peptide, Fragment D1
T1 construct: consisted of three polypeptide chains of different molecular weights: /α/, 12,000; /β, 43,000; and /γ, 39,000; made in house; host or cells: not recombinant: plasmin (plasminogen + streptokinase) digest of human fibrinogen in calcium, then gel filtration
T1 sequence (P02671 124-225 limits assumed): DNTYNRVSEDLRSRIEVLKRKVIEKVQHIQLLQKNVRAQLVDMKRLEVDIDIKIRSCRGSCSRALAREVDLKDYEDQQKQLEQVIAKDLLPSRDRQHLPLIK
T1 sequence (P02675 164-491 limits assumed): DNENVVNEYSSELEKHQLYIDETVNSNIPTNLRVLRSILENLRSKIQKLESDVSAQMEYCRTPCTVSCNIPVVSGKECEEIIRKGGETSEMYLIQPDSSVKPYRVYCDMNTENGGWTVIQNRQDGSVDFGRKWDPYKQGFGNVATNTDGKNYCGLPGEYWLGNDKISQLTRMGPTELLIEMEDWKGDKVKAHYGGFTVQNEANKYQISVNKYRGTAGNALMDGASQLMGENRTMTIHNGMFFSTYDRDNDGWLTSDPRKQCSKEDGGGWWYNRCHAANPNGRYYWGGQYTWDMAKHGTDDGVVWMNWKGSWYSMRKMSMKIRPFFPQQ
T1 sequence (P02679 89-437 isoform P02679-2 limits assumed): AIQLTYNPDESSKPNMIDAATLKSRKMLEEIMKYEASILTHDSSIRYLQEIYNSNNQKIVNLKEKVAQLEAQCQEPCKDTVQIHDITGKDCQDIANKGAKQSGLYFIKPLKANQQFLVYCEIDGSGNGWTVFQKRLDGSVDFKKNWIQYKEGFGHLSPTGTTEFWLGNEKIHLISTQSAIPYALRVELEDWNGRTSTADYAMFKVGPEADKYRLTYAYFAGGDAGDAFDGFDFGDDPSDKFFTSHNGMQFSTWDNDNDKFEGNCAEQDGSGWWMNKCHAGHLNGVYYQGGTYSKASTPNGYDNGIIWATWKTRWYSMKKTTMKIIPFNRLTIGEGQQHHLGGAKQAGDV
Excerpt: (§1) Acta 133, 376-379 (1979).

bovine serum albumin = bovine serum albumin (Bos taurus, UniProt P02769); experiment: Equilibrium binding of 125-I D1 Peptide, bovine serum albumin
bovine serum albumin, sequence (P02769 25-607): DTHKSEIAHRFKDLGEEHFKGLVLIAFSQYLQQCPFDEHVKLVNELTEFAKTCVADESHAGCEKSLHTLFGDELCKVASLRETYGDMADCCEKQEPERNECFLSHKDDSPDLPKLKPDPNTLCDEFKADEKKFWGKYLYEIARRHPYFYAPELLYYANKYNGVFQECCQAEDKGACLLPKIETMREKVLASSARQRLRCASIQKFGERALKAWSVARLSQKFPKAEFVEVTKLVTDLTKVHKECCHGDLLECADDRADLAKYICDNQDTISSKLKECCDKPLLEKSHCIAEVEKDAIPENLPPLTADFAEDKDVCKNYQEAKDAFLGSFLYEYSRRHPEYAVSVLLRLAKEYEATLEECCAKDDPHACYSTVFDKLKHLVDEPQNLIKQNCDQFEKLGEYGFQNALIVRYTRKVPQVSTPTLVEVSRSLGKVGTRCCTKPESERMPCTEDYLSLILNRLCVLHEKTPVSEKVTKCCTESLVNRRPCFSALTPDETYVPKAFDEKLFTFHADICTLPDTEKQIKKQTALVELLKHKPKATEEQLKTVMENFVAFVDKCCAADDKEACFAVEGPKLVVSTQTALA
Excerpt: as §1

intact NDSK = target: T2, intact NDSK (Homo sapiens, UniProt P02671+P02675+P02679); experiment: Equilibrium binding of 125-I D1 Peptide, intact NDSK
T2 sequence (P02671 20-70 limits assumed): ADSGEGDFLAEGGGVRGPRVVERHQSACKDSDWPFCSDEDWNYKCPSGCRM
T2 sequence (P02675 31-148 limits assumed): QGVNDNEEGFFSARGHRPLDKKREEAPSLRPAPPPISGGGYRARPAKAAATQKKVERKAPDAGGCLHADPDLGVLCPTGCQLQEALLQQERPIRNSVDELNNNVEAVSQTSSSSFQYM
T2 sequence (P02679 27-104 limits assumed): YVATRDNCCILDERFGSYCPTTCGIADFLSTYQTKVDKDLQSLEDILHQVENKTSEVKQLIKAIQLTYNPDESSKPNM

[1] = target: T3, thrombin-treated NH2-terminal disulfide knot (NDSK) (Homo sapiens, UniProt P02671+P02675+P02679); experiment: Equilibrium binding of 125-I D1 Peptide (equilibrium dialysis / Sephadex gel equilibrium), thrombin-treated NDSK
T3 sequence (P02671 36-70 limits assumed): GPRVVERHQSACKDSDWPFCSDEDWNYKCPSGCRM
T3 sequence (P02675 45-148 limits assumed): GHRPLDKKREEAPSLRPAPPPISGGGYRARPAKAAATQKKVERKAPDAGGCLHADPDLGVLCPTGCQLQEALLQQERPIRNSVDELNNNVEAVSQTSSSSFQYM
T3 sequence (P02679 27-453): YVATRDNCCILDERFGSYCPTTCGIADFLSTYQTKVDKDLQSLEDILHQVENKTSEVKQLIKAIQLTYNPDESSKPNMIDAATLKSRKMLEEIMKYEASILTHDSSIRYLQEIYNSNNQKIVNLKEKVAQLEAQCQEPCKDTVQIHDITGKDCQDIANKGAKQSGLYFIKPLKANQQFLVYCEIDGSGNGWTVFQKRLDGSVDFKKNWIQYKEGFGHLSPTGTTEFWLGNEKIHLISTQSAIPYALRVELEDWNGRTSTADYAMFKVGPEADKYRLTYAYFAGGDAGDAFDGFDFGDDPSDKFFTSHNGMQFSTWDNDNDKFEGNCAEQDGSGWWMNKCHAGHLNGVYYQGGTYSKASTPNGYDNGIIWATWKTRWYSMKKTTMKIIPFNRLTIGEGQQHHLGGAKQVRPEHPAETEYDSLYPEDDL

CC[C@H](C)[C@H](NC(=O)[C@H](CCCCN)NC(=O)[C@H](CCSC)NC(=O)[C@@H](NC(=O)[C@@H](NC(=O)[C@H](CCCCN)NC(=O)[C@H](CCCCN)NC(=O)[C@H](CCSC)NC(=O)[C@H](CO)NC(=O)[C@H](Cc1ccc(O)cc1)NC(=O)[C@H](Cc1c[nH]c2ccccc12)NC(=O)[C@H](CCCNC(=N)N)NC(=O)[C@@H](N)[C@@H](C)O)[C@@H](C)O)[C@@H](C)O)C(=O)N[C@H](C(=O)N1CCC[C@H]1C(=O)N[C@@H](Cc1ccccc1)C(=O)N[C@@H](CC(N)=O)C(=O)N[C@@H](CCCNC(=N)N)C(=O)N[C@@H](CC(C)C)C(=O)N[C@H](C(=O)N[C@H](C(=O)NCC(=O)N[C@@H](CCC(=O)O)C(=O)NCC(=O)N[C@@H](CCC(N)=O)C(=O)N[C@@H](CCC(N)=O)C(=O)N[C@@H](Cc1c[nH]cn1)C(=O)N[C@@H](Cc1c[nH]cn1)C(=O)N[C@@H](CC(C)C)C(=O)NCC(=O)NCC(=O)N[C@@H](C)C(=O)N[C@@H](CCCCN)C(=O)N[C@@H](CCC(N)=O)C(=O)N[C@@H](C)C(=O)NCC(=O)N[C@@H](CC(=O)O)C(=O)N[C@H](C(=O)O)C(C)C)[C@@H](C)CC)[C@@H](C)O)[C@@H](C)CC [D1 Peptide] (H-TRWYSMKKTTMKIIPFNRLTIGEGQQHHLGGAKQAGDV-OH)
binding to Fragment D1 (Fragment D1): no measurable binding | binding to bovine serum albumin (bovine serum albumin): no measurable binding | binding to intact NDSK (intact NDSK): no measurable binding | number of binding sites on thrombin-treated NDSK ([1]; Scatchard analysis (FIG. 6)): approximately 2.1 | n (number of binding sites) ([1]; plot of 1/free ligand vs. total NDSK/bound protein): 2.2
